The results in this text go back to patent publication EP4722228A1, “NEW COMPOUND TARGETING MUSK AND USE THEREOF” (The University of Tokyo, priority 2023, dated 2024).

Numbered stars: 1 amine (or outer) side, 2 acyl side, 3 side chain; on linkers, the order of the positions; unused ones are H or OH. Bridge positions count the residues as written; N and C are the ends. Square brackets hold non-standard residues; d marks the D form. Peptide text beside a SMILES is read from it. I, II: the chains in the order shown. X1 = O=C(CCN1C(=O)CC([*:1])C1=O)NCCOCCOCCOCCOCCOCCOCCOCCOCCOCCOCCOCCNC(=O)CCN1C(=O)CC([*:2])C1=O; X2 = O=C(CCN1C(=O)CC([*:1])C1=O)NCCCOCCOCCOCCCNC(=O)CCN1C(=O)CC([*:2])C1=O

The first experiment deals with T1, human MuSK (Homo sapiens, UniProt O15146).
T1 construct: DNA corresponding to the extracellular portion (amino acids 1-493) was amplified by a PCR method; made in house; host or cells: Expi293F cells
T1 sequence (O15146 24-493): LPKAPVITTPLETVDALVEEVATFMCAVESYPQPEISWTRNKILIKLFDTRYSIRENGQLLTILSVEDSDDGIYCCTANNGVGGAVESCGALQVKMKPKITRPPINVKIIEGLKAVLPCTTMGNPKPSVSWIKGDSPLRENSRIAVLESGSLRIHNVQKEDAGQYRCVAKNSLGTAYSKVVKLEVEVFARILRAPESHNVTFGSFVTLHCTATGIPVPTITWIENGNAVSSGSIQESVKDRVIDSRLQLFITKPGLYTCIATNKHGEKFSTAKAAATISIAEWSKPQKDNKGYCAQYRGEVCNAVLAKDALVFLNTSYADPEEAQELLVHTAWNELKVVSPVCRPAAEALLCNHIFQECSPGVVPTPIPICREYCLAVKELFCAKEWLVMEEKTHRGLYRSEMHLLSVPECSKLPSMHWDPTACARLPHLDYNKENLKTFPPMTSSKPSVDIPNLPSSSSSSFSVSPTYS
Nature of the experiment: SPR binding activity test to human MuSK (Biacore). The settings on record: human MuSK, peptide homodimers. How it is done: The human MuSK protein (extracellular portion) was prepared as a recombinant protein as follows. Using a Flexi clone (FXC31275, Promega Corporation) encoding Human MuSK isoform 1 precursor (NCBI Reference Sequence: NP_005583.1) as a template, DNA corresponding to the extracellular portion (amino acids 1-493) was amplified by a PCR method. XhoI and EcoRI restriction enzyme recognition sequences were added to both the 5' and 3' ends of the amplified DNA sequence, and these were used for insertion into the multiple cloning site of a pCAG-Neo hIgG1-Fc plasmid (Fujifilm Wako Pure Chemical Corporation). This plasmid (pCAG-Neo hMuSK-Fc) enables expression of a chimeric protein of the secretory human MuSK extracellular portion and human IgG1 Fc (hMuSK-Fc; molecular weight of approximately 200 kDa) in animal cells. In practice, ExpiFectamine 293 reagent (Invitrogen) was used to transfect the pCAG-Neo hMuSK-Fc plasmid into Expi293F cells (Invitrogen), and shaking culture was carried out (for 6 days) in an incubator containing 8% CO2. Next, the culture supernatant was collected, centrifuged, and sterilized by filtration through a 0.22 µm filter. The obtained culture supernatant was subjected to Protein G purification, and finally, a purified hMuSK-Fc sample with 99.96% purity (AKTA-FPLC analysis) was obtained.
The strength of binding between MuSK and the cyclic peptides was evaluated by quantitatively measuring the binding kinetics (binding affinity (dissociation constant) KD) of the cyclic peptides to MuSK immobilized on a sensor chip via an Fc tag, using surface plasmon resonance (SPR).
According to the standard immobilization protocol provided by the manufacturer, Fc-tagged human/mouse/rat MuSK was immobilized on a Protein G chip or a Protein A chip (Cytiva). A running buffer for the monomer/dimer peptides contained 0.010 M phosphate, 0.14 M NaCl, 0.0027 M KCl, 0.05% (v/v) Tween 20, and 0.1% (v/v) DMSO. A running buffer for the monomer/dimer U-bodies contained 0.010 M phosphate, 0.14 M NaCl, 0.0027 M KCl, and 0.05% (v/v) Tween 20. A series of concentrations of each monomer peptide, dimer peptide, monomer U-body, and dimer U-body was injected as analytes. A 1:1 binding fitting analysis was applied using Biacore evaluation software, and ka, kd, and KD values were determined.
Fc-tagged human MuSK was prepared according to the procedure described in Example 1(1). In addition, Fc-tagged mouse MuSK was used by expressing a nucleotide sequence encoding the Fc-tagged mouse MuSK extracellular domain (SEQ ID NO: 34). In addition, Fc-tagged rat MuSK was used as a chimeric protein of rat MuSK and an Fc protein, namely, Recombinant Rat MuSK Fc Chimera Protein (catalog number: 9847-MK-050, R&D Systems).
The affinity of the U-bodies and their complexes obtained as described above for MuSK of human, rat, and mouse was evaluated (binding activity test). The test was carried out according to the procedure described in Example 1(3). However, for the complexes of U-bodies, surface plasmon resonance (SPR) analysis was carried out using a Biacore 8K (Cytiva).
Compound `CC(C)C[C@@H]1NC(=O)[C@H](CO)NC(=O)[C@H](C)NC(=O)[C@H](C(C)C)NC(=O)[C@H](C(C)C)NC(=O)[C@H](CC(N)=O)NC(=O)[C@H]([C@@H](C)O)NC(=O)[C@H](Cc2c[nH]cn2)NC(=O)[C@H](Cc2ccc(O)cc2)NC(=O)[C@H](CO)NC(=O)[C@@H]2CCCN2C(=O)[C@@H](Cc2ccc(O)cc2)NC(=O)CSC[C@@H](C(=O)N[C@@H](CSC2CC(=O)N(CCC(=O)NCCCOCCOCCOCCCNC(=O)CCN3C(=O)CC(SC[C@H](NC(=O)[C@@H]4CSCC(=O)N[C@H](Cc5ccc(O)cc5)C(=O)N5CCC[C@H]5C(=O)N[C@@H](CO)C(=O)N[C@@H](Cc5ccc(O)cc5)C(=O)N[C@@H](Cc5c[nH]cn5)C(=O)N[C@@H]([C@@H](C)O)C(=O)N[C@@H](CC(N)=O)C(=O)N[C@@H](C(C)C)C(=O)N[C@@H](C(C)C)C(=O)N[C@@H](C)C(=O)N[C@@H](CO)C(=O)N[C@@H](CC(C)C)C(=O)N[C@@H](CCCCN)C(=O)N[C@@H](CCCNC(=N)N)C(=O)N4)C(N)=O)C3=O)C2=O)C(N)=O)NC(=O)[C@H](CCCNC(=N)N)NC(=O)[C@H](CCCCN)NC1=O` (some centres unmarked) [MuSK7 PEG3 dimer] (I: {CH2CO}-[dY]PSYHTNVVASLKRCC-NH2 / II: {CH2CO}-[dY]PSYHTNVVASLKRCC-NH2; linker I:16-II:16 via X2; thioether I:N-I:15, II:N-II:15) displayed a koff of 0.00034 s⁻¹ and a kon of 540000 M⁻¹ s⁻¹.
The like results for “I: Ac-[dY]LPEFSWPESFVLFLRQRQRQLGRGAEC-NH2 / II: Ac-[dY]LPEFSWPESFVLFLRQRQRQLGRGAEC-NH2 (linker I:28-II:28 via X2) [MuSK1Ac Term PEG3 dimer]” were, in that order, 0.0012 s⁻¹ and 200000 M⁻¹ s⁻¹.
The like results for `CC[C@H](C)[C@@H]1NC(=O)[C@H](CC(N)=O)NC(=O)[C@H](C(C)C)NC(=O)[C@H](Cc2ccc(O)cc2)NC(=O)CNC(=O)[C@@H]2CCCN2C(=O)[C@H](CCC(N)=O)NC(=O)[C@H](CC(C)C)NC(=O)[C@H](Cc2ccc(O)cc2)NC(=O)[C@H](Cc2c[nH]c3ccccc23)NC(=O)[C@@H](Cc2ccc(O)cc2)NC(=O)CSC[C@@H](C(=O)N[C@@H](CSC2CC(=O)N(CCC(=O)NCCOCCOCCOCCOCCOCCOCCOCCOCCOCCOCCOCCNC(=O)CCN3C(=O)CC(SC[C@H](NC(=O)[C@@H]4CSCC(=O)N[C@H](Cc5ccc(O)cc5)C(=O)N[C@@H](Cc5c[nH]c6ccccc56)C(=O)N[C@@H](Cc5ccc(O)cc5)C(=O)N[C@@H](CC(C)C)C(=O)N[C@@H](CCC(N)=O)C(=O)N5CCC[C@H]5C(=O)NCC(=O)N[C@@H](Cc5ccc(O)cc5)C(=O)N[C@@H](C(C)C)C(=O)N[C@@H](CC(N)=O)C(=O)N[C@@H]([C@@H](C)CC)C(=O)N[C@@H](C(C)C)C(=O)N[C@@H]([C@@H](C)O)C(=O)N[C@@H](CO)C(=O)N[C@@H](Cc5ccc(O)cc5)C(=O)N[C@@H](Cc5c[nH]cn5)C(=O)N4)C(N)=O)C3=O)C2=O)C(N)=O)NC(=O)[C@H](Cc2c[nH]cn2)NC(=O)[C@H](Cc2ccc(O)cc2)NC(=O)[C@H](CO)NC(=O)[C@H]([C@@H](C)O)NC(=O)[C@H](C(C)C)NC1=O` (some centres unmarked) [MuSK9 PEG11 dimer] (I: {CH2CO}-[dY]WYLQPGYVNIVTSYHCC-NH2 / II: {CH2CO}-[dY]WYLQPGYVNIVTSYHCC-NH2; linker I:18-II:18 via X1; thioether I:N-I:17, II:N-II:17) were, in that order, 0.0017 s⁻¹ and 440000 M⁻¹ s⁻¹.
The like results for “I: Ac-C[dY]LPEFSWPESFVLFLRQRQRQLGRGAE-NH2 / II: Ac-C[dY]LPEFSWPESFVLFLRQRQRQLGRGAE-NH2 (linker I:1-II:1 via X2) [MuSK1Ac PEG3 dimer]” were, in that order, 0.0013 s⁻¹ and 300000 M⁻¹ s⁻¹.
In turn, `CC(C)C[C@@H]1NC(=O)[C@H](CC(C)C)NC(=O)[C@H](CO)NC(=O)[C@H](C(C)C)NC(=O)[C@H](C(C)C)NC(=O)[C@H](CC(N)=O)NC(=O)[C@H]([C@@H](C)O)NC(=O)[C@@H]2CCCN2C(=O)[C@H](Cc2ccccc2)NC(=O)[C@@H](Cc2ccc(O)cc2)NC(=O)CSC[C@@H](C(=O)N[C@@H](CSC2CC(=O)N(CCC(=O)NCCCOCCOCCOCCCNC(=O)CCN3C(=O)CC(SC[C@H](NC(=O)[C@@H]4CSCC(=O)N[C@H](Cc5ccc(O)cc5)C(=O)N[C@@H](Cc5ccccc5)C(=O)N5CCC[C@H]5C(=O)N[C@@H]([C@@H](C)O)C(=O)N[C@@H](CC(N)=O)C(=O)N[C@@H](C(C)C)C(=O)N[C@@H](C(C)C)C(=O)N[C@@H](CO)C(=O)N[C@@H](CC(C)C)C(=O)N[C@@H](CC(C)C)C(=O)N[C@@H](CCCCN)C(=O)N[C@@H](CO)C(=O)N4)C(N)=O)C3=O)C2=O)C(N)=O)NC(=O)[C@H](CO)NC(=O)[C@H](CCCCN)NC1=O` (some centres unmarked) [MuSK4 PEG3 dimer] (I: {CH2CO}-[dY]FPTNVVSLLKSCC-NH2 / II: {CH2CO}-[dY]FPTNVVSLLKSCC-NH2; linker I:14-II:14 via X2; thioether I:N-I:13, II:N-II:13) came in with a koff of 0.0044 s⁻¹ and a kon of 650000 M⁻¹ s⁻¹.

The same experiment, now with this note: human MuSK, peptide homodimers, read-out: Kd.
As for `CC[C@H](C)[C@@H]1NC(=O)[C@H](CC(N)=O)NC(=O)[C@H](C(C)C)NC(=O)[C@H](Cc2ccc(O)cc2)NC(=O)CNC(=O)[C@@H]2CCCN2C(=O)[C@H](CCC(N)=O)NC(=O)[C@H](CC(C)C)NC(=O)[C@H](Cc2ccc(O)cc2)NC(=O)[C@H](Cc2c[nH]c3ccccc23)NC(=O)[C@@H](Cc2ccc(O)cc2)NC(=O)CSC[C@@H](C(=O)N[C@@H](CSC2CC(=O)N(CCC(=O)NCCOCCOCCOCCOCCOCCOCCOCCOCCOCCOCCOCCNC(=O)CCN3C(=O)CC(SC[C@H](NC(=O)[C@@H]4CSCC(=O)N[C@H](Cc5ccc(O)cc5)C(=O)N[C@@H](Cc5c[nH]c6ccccc56)C(=O)N[C@@H](Cc5ccc(O)cc5)C(=O)N[C@@H](CC(C)C)C(=O)N[C@@H](CCC(N)=O)C(=O)N5CCC[C@H]5C(=O)NCC(=O)N[C@@H](Cc5ccc(O)cc5)C(=O)N[C@@H](C(C)C)C(=O)N[C@@H](CC(N)=O)C(=O)N[C@@H]([C@@H](C)CC)C(=O)N[C@@H](C(C)C)C(=O)N[C@@H]([C@@H](C)O)C(=O)N[C@@H](CO)C(=O)N[C@@H](Cc5ccc(O)cc5)C(=O)N[C@@H](Cc5c[nH]cn5)C(=O)N4)C(N)=O)C3=O)C2=O)C(N)=O)NC(=O)[C@H](Cc2c[nH]cn2)NC(=O)[C@H](Cc2ccc(O)cc2)NC(=O)[C@H](CO)NC(=O)[C@H]([C@@H](C)O)NC(=O)[C@H](C(C)C)NC1=O` (some centres unmarked) [MuSK9 PEG11 dimer] (I: {CH2CO}-[dY]WYLQPGYVNIVTSYHCC-NH2 / II: {CH2CO}-[dY]WYLQPGYVNIVTSYHCC-NH2; linker I:18-II:18 via X1; thioether I:N-I:17, II:N-II:17), the Kd stood at 3.9 nM.

What is called koff is the first-order rate constant of dissociation. Lower therefore signals slow dissociation. A word on the kon: it is the second-order rate constant of association. A higher kon goes with faster complex formation. As a reminder, the Kd is a measure of binding affinity in units of concentration.
